Source: publication PMC10605077, “In Vitro and In Silico Antiviral Activity of Di-Halogenated Compounds Derived from L-Tyrosine against Human Immunodeficiency Virus 1 (HIV-1)” (Current Issues in Molecular Biology, 2023)
“Also recorded” adds a separate entry of the source. Where two headings read alike, the source gives them in different places.

What was measured:
HIV-1 BaL (R5) = test: Anti-HIV activity in infected TZM-bl cells (luciferase), pre- and post-infection treatment; assay type: cell-based, Human Immunodeficiency Virus Type 1 (HIV-1); settings: for anti-HIV activity against R5 strain in words: HIV-1 BaL; for inhibition at 18 µM / inhibition at 37 µM / inhibition at 75 µM / inhibition at 150 µM: read-out: Percentage inhibition of HIV-1 BaL replication; for IC50: HIV-1 BaL (R5), luciferase, 48 h
Experimental: (§1) TZM-bl cells were plated in a flat-bottom 96-well plate (Corning Inc., Corning, New York, NY, USA) at the concentration of 1.2 × 10^5 cells/well and incubated for 24 h at 37 °C before the addition or not of each compound at non-cytotoxic concentrations (pre-infection treatment). Then, 1 h later the treatment was removed, and the infection was performed by adding 10 ng/mL of HIV-1IIIB p24 (X4) or 2 ng/mL of HIV-1 BaL (R5). After 3 h, the virus was removed and washed, and the compound dilutions were added again (post-infection treatment). Additionally, three wells were left for the negative control (cells without treatment or infection), the positive control of infection (cells infected with the virus without treatment), and the positive control of inhibition (AZT). Antiviral activity was quantified 48 h after treatment by measuring luciferase activity, which is directly proportional to the number of infectious virus particles in the sample [23]. The luciferase activity was quantified via luminescence emitted by the cells using Bright-GloTM Luciferase Assay System (Promega Corp., Madison, WI, USA), following the manufacturer’s instructions. Briefly, 100 μL of the reagent was added to 100 μL of TZM-bl cells and incubated for at least 2 min, protected from light. Relative light units (RLUs) were measured using the multi-mode plate reader (Thermo ScientificTM VarioskanTM LUX). Each experimental condition was performed in triplicate in two independent experiments (n = 6). The percentage inhibition was calculated as follows: 100 − (RLU of treated cells − RLU of uninfected cells/RLU of infection control − RLU of uninfected cells) × 100.

HIV-1IIIB (X4) = test: as above; assay type: cell-based, Human Immunodeficiency Virus Type 1 (HIV-1); settings: for anti-HIV activity against X4 strain in words: HIV-1IIIB; for inhibition at 18 µM / inhibition at 37 µM / inhibition at 75 µM / inhibition at 150 µM: Human immunodeficiency virus 1, TZM-bl, read-out: Percentage inhibition of HIV-1IIIB (X4 strain) replication
Experimental: as §1

MTT cytotoxicity assay = assay type: cell-based; settings: human; TZM-bl cells, MTT, 48 h
Experimental: The in vitro cytotoxic effect of the di-halogenated compounds on TZM-bl cells was determined with the MTT (3-(4,5-Dimethylthiazol-2-yl)-2,5-diphenyltetrazolium bromide) assay (Sigma-Aldrich, St. Louis, MO, USA). For this purpose, 1.2 × 10^5 cells/well were seeded in 96-well plates, which were incubated at 37 °C and 5% CO2 for 24 h. DMEM was used as a negative control and serial two-fold dilutions of the compounds were performed at 9.37 to 300 μM in DMEM supplemented with 5% FBS. A total of 100 μL/well of each dilution was added and incubated for 48 h. Subsequently, the cells were washed 2 times with 1X PBS, and 30 μL of MTT solution (2 mg/mL) was added and incubated for 2 h at 37 °C, in a light-protected culture. Then, 100 µL of DMSO was added to dissolve the formazan crystals, placed in shaking for 15 min, and absorbance reading was performed at 570 nm, using the Microplate Spectrophotometer (Thermo Scientific™ Multiskan™ GO, Waltham, MA, USA). Two independent experiments evaluated each experimental condition in quadruplicate (n = 8). The percentage of viability was calculated concerning the absorbance of the controls without a compound (100% viability). The 50% cytotoxic concentration was defined as the concentration of each compound that can reduce cell viability to 50% of the untreated cell control. CC50 was calculated and analyzed with GraphPad Prism version 8.0.1 (GraphPad Software, Inc., San Diego, CA, USA).

[1] = Viability assay of PBMC, flow cytometry with viability dye; assay type: cell-based, Human; settings: human, PBMC stimulated with PHA and IL-2; all concentrations tested (18.75 μM up to 150 μM), 7 days; read-out: viability level on PBMCs
Experimental: PBMCs were thawed and let in the culture in RPMI with 10% fetal bovine serum (FBS) (Gibco, Grand Island, NY, USA) for 24 h before each experiment. Cells were stimulated for 48 h with 8 μg/mL of Phytohemagglutinin-PHA (Sigma-Aldrich, St. Louis, MO, USA) and 50 UI/mL of IL-2 (Peprotech, Rocky Hill, CT, USA). In the presence of various concentrations of di-halogenated compounds derived from L-Tyrosine, 2 × 10^5 cells per well were treated and resuspended in 200 µL of fresh medium with 20 UI/mL of IL-2 and incubated in 96-well culture plates for 7 days. After 7 days post-treatment, cell viability was determined using flow cytometry. Briefly, cells were stained with fixable viability dye eFluor 506 (eBioscience, Leicestershire, UK) as detailed in the manufacturer’s protocol for 30 min in the dark. Later, cells were washed and resuspended in PBS, and the percentage of viable cells was measured instead in the LS Fortessa cytometer (BD Biosciences, Franklin Lakes, NJ, USA). Data were analyzed using FlowJo version 10.5.3 (FlowJo, LLC, Ashland, OR, USA).

[2] = system: HIV-GFP-VSV-G reporter virus; test: microbe, parasite or virus in culture; assay type: cell-based, HIV-1; settings: Human immunodeficiency virus 1, TZM-bl, read-out: percentage inhibition of HIV-GFP-VSV-G replication
[3] = Human immunodeficiency virus 1, BAL, TZM-bl
[4] = Human immunodeficiency virus 1, BAL, 18 µM, TZM-bl cells
[5] = Human immunodeficiency virus 1, BAL, 37 µM, TZM-bl cells
[6] = Human immunodeficiency virus 1, BAL, 75 µM, TZM-bl cells
[7] = Human immunodeficiency virus 1, BAL, 150 µM, TZM-bl cells

Row | SMILES | inhibition at 18 µM (HIV-1 BaL (R5); [3]) [%] | inhibition at 37 µM (HIV-1 BaL (R5); [3]) [%] | inhibition at 75 µM (HIV-1 BaL (R5); [3]) [%] | inhibition at 150 µM (HIV-1 BaL (R5); [3]) [%] | inhibition at 18 µM (HIV-1IIIB (X4)) [%] | inhibition at 37 µM (HIV-1IIIB (X4)) [%] | inhibition at 75 µM (HIV-1IIIB (X4)) [%] | inhibition at 150 µM (HIV-1IIIB (X4)) [%] | inhibition at 18 µM (HIV-1 BaL (R5); [4]) [%] | inhibition at 37 µM (HIV-1 BaL (R5); [5]) [%] | inhibition at 75 µM (HIV-1 BaL (R5); [6]) [%] | inhibition at 150 µM (HIV-1 BaL (R5); [7]) [%] | inhibition at 18 µM (HIV-1IIIB (X4); 18 µM, TZM-bl cells) [%] | inhibition at 37 µM (HIV-1IIIB (X4); 37 µM, TZM-bl cells) [%] | inhibition at 75 µM (HIV-1IIIB (X4); 75 µM, TZM-bl cells) [%] | inhibition at 150 µM (HIV-1IIIB (X4); 150 µM, TZM-bl cells) [%] | further results
1 | CN(C)CCc1cc(Br)c(O)c(Br)c1 [YDB-2M] | 26.1 | 2.7 | 7 | -45.8 | 14.6 | -7 | 9.8 | -20.7 |  |  |  |  |  |  |  |  | anti-HIV activity against R5 strain in words (HIV-1 BaL (R5); TZM-bl cells): had no antiviral activity; also recorded: did not show significant anti-HIV activity; anti-HIV activity against X4 strain in words (HIV-1IIIB (X4); TZM-bl cells): had no antiviral activity
2 | CN(C)CCc1cc(Cl)c(O)c(Cl)c1 [YDC-2M] | -4.1 | 8.8 | 19.1 | -2.8 | 15.1 | -22 | 22.6 | 29.1 |  |  |  |  |  |  |  |  | anti-HIV activity against R5 strain in words (HIV-1 BaL (R5); TZM-bl cells): had no activity; anti-HIV activity against X4 strain in words (HIV-1IIIB (X4); TZM-bl cells): had no activity
3 | C[N+](C)(C)CCc1cc(Cl)c(O)c(Cl)c1 [YDC-3M] |  |  |  |  |  |  |  |  | 50.2 | 42.3 | 33.4 | 27.5 | 41 | -25.7 | 31.2 | 29.9 | CC50 at 48 h (MTT cytotoxicity assay): 39.9 µM; viability at 7 days [1]: > 90%; IC50 (HIV-1 BaL (R5); TZM-bl cells): 37.7 µM; IC50 (HIV-1 BaL (R5); Human immunodeficiency virus 1, BAL, TZM-bl, TZM-bl cells): 37.2 µM; SI (HIV-1 BaL (R5); selectivity index against HIV-1 BaL (CC50 and IC50 of Table 3)): 1.07; IC50 (HIV-1IIIB (X4); Human immunodeficiency virus 1, HIV-1IIIB (X4), TZM-bl cells, luciferase, 48 h): 22.3 µM; inhibition at 150 µM [2]: 12.5%
4 | COc1c(Br)cc(CCN(C)C)cc1Br [YODB-2M] | -51.1 | -73.9 | -88.5 | -14.9 | -24.6 | -20 | -20.2 | -17 |  |  |  |  |  |  |  |  | 
5 | COc1c(Br)cc(CC[N+](C)(C)C)cc1Br [YODB-3M] |  |  |  |  |  |  |  |  | -25.1 | -14.1 | -9 | 9.3 | -3.1 | -10.5 | 20.3 | 13.1 | CC50 at 48 h (MTT cytotoxicity assay): 78.7 µM
6 | COc1c(Cl)cc(CCN(C)C)cc1Cl [YODC-2M] | 24.5 | 12.2 | 26.9 | -96.2 | -0.3 | 2.3 | -2.2 | 2.5 |  |  |  |  |  |  |  |  | 
7 | COc1c(Cl)cc(CC[N+](C)(C)C)cc1Cl [YODC-3M] |  |  |  |  |  |  |  |  | -19.7 | -7.7 | -1 | -1.3 | 3.2 | -5.8 | -8.6 | 0.5 | 
